Measurements reported in PubChem BioAssay AID1963420 (Molecular Pharmacology Branch, DTP, NCI, 2024).
“And” between values parts separate entries of the source, which are not always exact repeats. Identical values can stand only once.

Tested on: 494315-158-R-J1-PDC complex spheroid growth, percent test/control
Test: Anticancer human tumor 494315-158-R-J1-PDC patient-derived soft tissue sarcoma cell line growth inhibition [Asc]
Conditions: for viability, T/C: stronger effect = lower value
Method: Multicellular complex tumor spheroid response to apoptosis pathway targeting inhibitors Alrizomadlin, Pelcitoclax, and Dasminapant in combination with a variety of drugs and investigational agents in selected tumor cell lines
The MDM2 inhibitor alrizomadlin, the Bcl-2/Bcl-xL inhibitor pelcitoclax, and the IAPs inhibitor dasminapant were evaluated both individually and in combination with standard of care and investigational anticancer small molecules within a complex spheroid model of solid tumors. . Complex spheroids include a stromal component modeled by human endothelial cells (HUVEC) and fibroblasts modeled by human mesenchymal stem cells (MSCs). The concentration ranges selected for each drug and investigational agent were based upon clinically achievable concentrations if the clinical Cmax of the agent was known.
Compounds. The drugs and investigational agents: alrizomadlin (APG-115; NSC831270), pelcitoclax (APG-1252; NSC835773), dasminapant (APG-1387;NSC834197), TAK-243 (NSC785004), copanlisib (NSC809693), olaparib (NSC753686), talazoparib (NSC767125), cobimetinib (NSC 768068), eltanexor (KPT-8602, NSC 794443), abemaciclib (NSC 768073), sotorasib (NSC818433), adagrasib (NSC 831453), MRTX-1133 (NSC 836407), Iadademestat (ORY1001, NSC 806812), and RMC-4630 (NSC839698), were obtained from the NCI Developmental Therapeutics Program Chemical Repository. The FDA-approved anticancer drug set is available from the Developmental Therapeutics Program at https://dtp.cancer.gov/organization/dscb/obtaining/available plates.htm. […] The stock solutions were prepared in dimethyl sulfoxide (DMSO, Sigma-Aldrich, St. Louis, MO, cat. D2650) at 800-fold the tested concentration and stored at -70 degrees C prior to their use. All drugs and investigational agents were tested over a range starting from a high concentration at or near the clinical Cmax and decreasing in half-log increments. If the clinical Cmax for an agent had not been determined, the highest concentration tested was 10 microM.
The patient-derived cancer (PDC) cell lines include five colon adenocarcinomas: 186277-243-T-J2-PDC, 616215-338-R-J1-PDC, 439559-082-T-J2-PDC, 463943-066-T-J2-PDC, and 519858-162-T-J1-PDC; three pancreatic carcinomas: 323965-272-R-J2-PDC, 521955-158-R6-J3-PDC, and 521955-158-R2-J5-PDC; two uterine sarcomas: 327498-152-R-J2-PDC and 993429-296-R-J1-PDC; two rhabdomyosarcomas: 755483-174-R-J1-PDC and 772245-204-R-J1-PDC; two soft tissue sarcomas: 126254-015-R-J1-PDC and 494315-158-R-J1-PDC; two malignant fibrous histiocytomas: 317291-083-R-J1-PDC and 596521-263-R-J1-PDC; two breast carcinomas: 171881-019-R-J1-PDC and 885512-296-R-J2-PDC; and one ovarian carcinoma: 6556581-035-R-J-PDC were obtained from the NCI PDMR, (https://pdmr.cancer.gov). The established cell lines HSSY-2 synovial sarcoma (RRID:CVCL 8719), SYO-1 synovial sarcoma (RRID:CVCL_7146), MPNST malignant peripheral neural sheath tumor were obtained from the Sloan Kettering Institute. The following established cell lines were purchased from the American Type Culture Collection (ATCC, Manassas, VA), Sor the received from the NCI repository:, PANC-1 pancreatic carcinoma (CRL-1469, RRID:CVCL_0480), OVCAR-5 ovarian carcinoma (RRID:CVCL_1628), OVCAR-8 ovarian carcinoma (RRID:CVCL_1629), , MCF-7 breast carcinoma (CRL-12584, RRID:CVCL_0031), MDA-MB-231 breast carcinoma (CRL-12532, RRID:CVCL_0062), NCI-H1876 small cell lung carcinoma (CRL-5902, RRID:CVCL_1503), NCI-H510A small cell lung carcinoma (HTB-184, RRID:CVCL_1565), NCI-H1417 (CRL-5869, RRID:CVCL_1469), and NCI-H196 small cell lung carcinoma (CRL-5823, RRID:CVCL_1509). Dr. Peter Houghton (Greehey Children's Cancer Research Institute, University of Texas Health Science Center, San Antonio, TX) provided Rh-18 rhabdomyosarcoma (RRID:CVCL_1659). Pooled donor human umbilical vein endothelial cells (HUVEC, Lonza, cat. CC-2519) and human mesenchymal stem cells (hMSC, Lonza, cat. PT-2501) were purchased from Lonza (Walkersville, MD).
Cell Culture. […]
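Further: compound exposure lasted seven days after spheroids formed for three days.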

C=CC(=O)N1CCN(c2nc(=O)n(-c3c(C)ccnc3C(C)C)c3nc(-c4c(O)cccc4F)c(F)cc23)C(C)C1 (configuration not stated) + Cc1c(S(C)(=O)=O)c(-c2cc(F)cc(N3CCN(c4ccc(NS(=O)(=O)c5ccc(NC(CCN6CCC(C(=O)OCCCP(=O)(O)O)CC6)CSc6ccccc6)c(S(=O)(=O)C(F)(F)F)c5)cc4)CC3)c2)c(-c2ccc(Cl)cc2)n1C(C)C
IC50 (curve of first compound, second compound 0.1 µM): > 10000 nM
IC50 (curve of first compound, second compound 0.316 µM): > 10000 nM
IC50 (curve of first compound, second compound 1 µM): > 10000 nM
IC50 (curve of first compound, second compound 3.16 µM): > 10000 nM
IC50 (curve of first compound, second compound 10 µM): > 10000 nM
viability, T/C (second compound 0.1 µM, first compound 0.0316 µM): 101%
viability, T/C (second compound 0.1 µM, first compound 0.1 µM): 84.5%
viability, T/C (second compound 0.1 µM, first compound 0.316 µM): 88.9%
viability, T/C (second compound 0.1 µM, first compound 1 µM): 100%
viability, T/C (second compound 0.1 µM, first compound 3.16 µM): 108%
viability, T/C (second compound 0.1 µM, first compound 10 µM): 91.7%
viability, T/C (second compound 0.316 µM, first compound 0.0316 µM): 67.4%
viability, T/C (second compound 0.316 µM, first compound 0.1 µM): 75.3%
viability, T/C (second compound 0.316 µM, first compound 0.316 µM): 72.2%
viability, T/C (second compound 0.316 µM, first compound 1 µM): 89.9%
viability, T/C (second compound 0.316 µM, first compound 3.16 µM): 80%
viability, T/C (second compound 0.316 µM, first compound 10 µM): 78.3%
viability, T/C (second compound 1 µM, first compound 0.0316 µM): 86.4%
viability, T/C (second compound 1 µM, first compound 0.1 µM): 63.5%
viability, T/C (second compound 1 µM, first compound 0.316 µM): 74.1%
viability, T/C (second compound 1 µM, first compound 1 µM): 79.3%
viability, T/C (second compound 1 µM, first compound 3.16 µM): 84%
viability, T/C (second compound 1 µM, first compound 10 µM): 66%
viability, T/C (second compound 3.16 µM, first compound 0.0316 µM): 61.1%
viability, T/C (second compound 3.16 µM, first compound 0.1 µM): 60.2%
viability, T/C (second compound 3.16 µM, first compound 0.316 µM): 69.5%
viability, T/C (second compound 3.16 µM, first compound 1 µM): 79.9%
viability, T/C (second compound 3.16 µM, first compound 3.16 µM): 81.4%
viability, T/C (second compound 3.16 µM, first compound 10 µM): 60.9%
viability, T/C (second compound 10 µM, first compound 0.0316 µM): 81.3%
viability, T/C (second compound 10 µM, first compound 0.1 µM): 84.5%
viability, T/C (second compound 10 µM, first compound 0.316 µM): 92.8%
viability, T/C (second compound 10 µM, first compound 1 µM): 90.1%
viability, T/C (second compound 10 µM, first compound 3.16 µM): 98.5%
viability, T/C (second compound 10 µM, first compound 10 µM): 67.3%

NC(=O)C(=Cn1cnc(-c2cc(C(F)(F)F)cc(C(F)(F)F)c2)n1)c1cncnc1
viability, T/C (compound 0.000949 µM): 88.9% and 102% and 89.1%
viability, T/C (compound 0.003 µM): 93.4% and 99.6% and 101%
viability, T/C (compound 0.00949 µM): 79.4% and 90.6% and 81.3%
viability, T/C (compound 0.03 µM): 73.1% and 71.5% and 74%
viability, T/C (compound 0.0949 µM): 49.7% and 40.1% and 50.4%
viability, T/C (compound 0.3 µM): 13.5% and 13.7% and 12.4%
IC50 (curve of compound): 94.2 nM and 65.9 nM and 94.4 nM
